Where two headings read alike, the source gives them in different places.
Assays:
Experiment in all cases: Kinase selectivity, P33-radiolabeled assay
Format in all cases: biochemical
Conditions in all cases: 10 μM ATP
PKCb2 = target: T1, PKCb2 (Homo sapiens, UniProt P05771)
T1 construct: purchased Reaction Biology Corp
Method in brief: (§1)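 Percent residual kinase activity versus DMSO is reported. Conditions: compound at 10 μM, ATP at 10 μM, n = 2.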

LKB1 = target: T2, LKB1 (Homo sapiens, UniProt Q15831)
T2 construct: purchased Reaction Biology Corp
T2 sequence (Q15831 1-433): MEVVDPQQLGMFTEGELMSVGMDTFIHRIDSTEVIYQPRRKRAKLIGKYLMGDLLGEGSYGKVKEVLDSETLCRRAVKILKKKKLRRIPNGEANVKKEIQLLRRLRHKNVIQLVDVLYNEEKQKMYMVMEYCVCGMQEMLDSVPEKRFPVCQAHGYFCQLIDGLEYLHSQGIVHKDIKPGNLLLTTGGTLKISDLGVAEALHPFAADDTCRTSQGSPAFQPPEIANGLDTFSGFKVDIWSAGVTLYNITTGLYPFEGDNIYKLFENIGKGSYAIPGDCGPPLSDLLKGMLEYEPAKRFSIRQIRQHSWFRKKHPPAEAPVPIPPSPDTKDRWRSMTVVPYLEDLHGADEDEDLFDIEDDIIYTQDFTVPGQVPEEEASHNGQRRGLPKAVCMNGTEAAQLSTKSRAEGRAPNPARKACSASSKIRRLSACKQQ
T2 sequence (Q7RTN6 1-431 partner): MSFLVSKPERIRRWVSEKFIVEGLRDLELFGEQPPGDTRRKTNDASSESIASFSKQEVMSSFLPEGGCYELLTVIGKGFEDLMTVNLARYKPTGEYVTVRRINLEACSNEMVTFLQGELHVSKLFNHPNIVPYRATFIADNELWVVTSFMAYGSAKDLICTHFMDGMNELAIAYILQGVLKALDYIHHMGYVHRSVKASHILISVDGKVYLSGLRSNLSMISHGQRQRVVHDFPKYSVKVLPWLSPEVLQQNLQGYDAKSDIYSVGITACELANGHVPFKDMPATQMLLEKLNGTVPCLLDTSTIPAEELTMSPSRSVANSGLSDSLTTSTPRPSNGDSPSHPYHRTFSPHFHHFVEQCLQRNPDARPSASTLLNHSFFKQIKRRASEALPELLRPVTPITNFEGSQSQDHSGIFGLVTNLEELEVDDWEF
T2 sequence (Q9Y376 1-341 partner): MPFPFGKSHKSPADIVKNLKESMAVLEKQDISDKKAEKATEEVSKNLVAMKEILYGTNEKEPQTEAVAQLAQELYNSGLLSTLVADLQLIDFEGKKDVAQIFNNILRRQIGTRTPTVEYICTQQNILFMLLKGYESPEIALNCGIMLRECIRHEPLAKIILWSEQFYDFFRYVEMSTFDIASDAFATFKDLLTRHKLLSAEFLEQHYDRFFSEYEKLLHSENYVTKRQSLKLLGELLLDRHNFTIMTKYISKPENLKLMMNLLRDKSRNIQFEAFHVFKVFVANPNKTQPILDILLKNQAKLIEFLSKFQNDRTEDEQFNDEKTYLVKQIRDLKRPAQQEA
Method in brief: as §1

MARK2/PAR-1Ba = target: T3, MARK2/PAR-1Ba (Homo sapiens, UniProt Q7KZI7)
T3 construct: purchased Reaction Biology Corp
Method in brief: as §1

AXL = target: T4, AXL (Homo sapiens, UniProt P30530)
T4 construct: purchased Reaction Biology Corp
T4 sequence (P30530 26-894): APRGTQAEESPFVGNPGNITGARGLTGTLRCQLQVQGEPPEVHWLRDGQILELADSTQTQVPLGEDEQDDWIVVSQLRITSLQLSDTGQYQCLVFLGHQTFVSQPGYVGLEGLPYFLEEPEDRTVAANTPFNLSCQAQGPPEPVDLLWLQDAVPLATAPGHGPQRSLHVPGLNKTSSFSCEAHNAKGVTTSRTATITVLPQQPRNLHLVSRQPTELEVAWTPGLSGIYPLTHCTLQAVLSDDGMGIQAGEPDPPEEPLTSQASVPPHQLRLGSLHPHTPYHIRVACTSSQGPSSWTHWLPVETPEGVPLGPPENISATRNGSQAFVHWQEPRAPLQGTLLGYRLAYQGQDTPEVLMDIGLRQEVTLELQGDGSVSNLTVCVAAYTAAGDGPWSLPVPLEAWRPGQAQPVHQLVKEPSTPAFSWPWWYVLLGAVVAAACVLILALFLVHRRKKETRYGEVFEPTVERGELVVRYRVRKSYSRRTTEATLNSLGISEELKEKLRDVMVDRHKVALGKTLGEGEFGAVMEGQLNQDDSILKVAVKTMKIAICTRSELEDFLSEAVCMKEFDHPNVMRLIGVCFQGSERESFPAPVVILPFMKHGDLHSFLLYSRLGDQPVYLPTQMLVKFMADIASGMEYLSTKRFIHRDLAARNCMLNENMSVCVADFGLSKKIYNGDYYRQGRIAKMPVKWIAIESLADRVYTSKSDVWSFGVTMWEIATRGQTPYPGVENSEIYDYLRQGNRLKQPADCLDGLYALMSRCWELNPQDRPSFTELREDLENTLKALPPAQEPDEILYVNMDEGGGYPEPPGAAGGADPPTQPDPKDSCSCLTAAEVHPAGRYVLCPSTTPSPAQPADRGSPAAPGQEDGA
Method in brief: as §1

JNK2 = target: T5, JNK2 (Homo sapiens, UniProt P45984)
T5 construct: purchased Reaction Biology Corp
Method in brief: as §1

EPHA7 = target: T6, EPHA7 (Homo sapiens, UniProt Q15375)
T6 construct: purchased Reaction Biology Corp
Method in brief: as §1

[1] = read-out: % Enzyme Activity (relative to DMSO controls) AVG
[2] = read-out: % Enzyme Activity (relative to DMSO controls) Data 1
[3] = read-out: % Enzyme Activity (relative to DMSO controls) Data 2

T6 sequence (Q15375 28-998): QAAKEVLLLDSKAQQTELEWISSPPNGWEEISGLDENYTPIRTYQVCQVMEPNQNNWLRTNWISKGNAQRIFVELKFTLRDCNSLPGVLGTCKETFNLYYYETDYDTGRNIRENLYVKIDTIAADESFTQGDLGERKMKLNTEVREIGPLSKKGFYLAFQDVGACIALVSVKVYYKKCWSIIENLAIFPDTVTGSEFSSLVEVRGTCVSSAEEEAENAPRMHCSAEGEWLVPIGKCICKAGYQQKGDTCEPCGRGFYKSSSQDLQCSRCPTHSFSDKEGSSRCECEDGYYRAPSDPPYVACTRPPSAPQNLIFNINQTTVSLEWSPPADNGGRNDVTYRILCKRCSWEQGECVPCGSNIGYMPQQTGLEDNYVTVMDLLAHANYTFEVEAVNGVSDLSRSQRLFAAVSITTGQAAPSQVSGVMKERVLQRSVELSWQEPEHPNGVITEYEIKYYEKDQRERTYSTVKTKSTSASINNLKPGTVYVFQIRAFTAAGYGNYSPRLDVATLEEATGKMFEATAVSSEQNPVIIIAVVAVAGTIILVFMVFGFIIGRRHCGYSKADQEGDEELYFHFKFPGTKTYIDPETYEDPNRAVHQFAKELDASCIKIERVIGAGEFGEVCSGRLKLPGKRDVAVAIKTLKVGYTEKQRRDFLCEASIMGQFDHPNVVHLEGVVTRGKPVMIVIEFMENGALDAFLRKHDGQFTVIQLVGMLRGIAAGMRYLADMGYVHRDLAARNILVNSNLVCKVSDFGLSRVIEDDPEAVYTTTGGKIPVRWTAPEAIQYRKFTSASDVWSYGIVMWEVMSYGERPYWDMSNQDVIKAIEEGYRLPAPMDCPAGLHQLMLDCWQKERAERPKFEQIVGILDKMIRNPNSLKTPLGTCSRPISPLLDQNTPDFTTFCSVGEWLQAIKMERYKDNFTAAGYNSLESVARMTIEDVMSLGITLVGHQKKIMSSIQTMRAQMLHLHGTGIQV
T5 sequence (P45984 whole entry): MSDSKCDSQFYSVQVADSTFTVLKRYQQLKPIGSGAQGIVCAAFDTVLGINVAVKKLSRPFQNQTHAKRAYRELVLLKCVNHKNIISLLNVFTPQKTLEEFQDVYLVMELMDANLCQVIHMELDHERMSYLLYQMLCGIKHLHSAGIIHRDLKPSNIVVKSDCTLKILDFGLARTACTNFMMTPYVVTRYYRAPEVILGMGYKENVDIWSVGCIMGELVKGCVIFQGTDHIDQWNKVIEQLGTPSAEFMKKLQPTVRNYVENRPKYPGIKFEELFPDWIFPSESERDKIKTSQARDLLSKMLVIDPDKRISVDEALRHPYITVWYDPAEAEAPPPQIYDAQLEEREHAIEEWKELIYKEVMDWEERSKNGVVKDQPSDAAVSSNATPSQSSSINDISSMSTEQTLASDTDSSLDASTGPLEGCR
T3 sequence (Q7KZI7 whole entry): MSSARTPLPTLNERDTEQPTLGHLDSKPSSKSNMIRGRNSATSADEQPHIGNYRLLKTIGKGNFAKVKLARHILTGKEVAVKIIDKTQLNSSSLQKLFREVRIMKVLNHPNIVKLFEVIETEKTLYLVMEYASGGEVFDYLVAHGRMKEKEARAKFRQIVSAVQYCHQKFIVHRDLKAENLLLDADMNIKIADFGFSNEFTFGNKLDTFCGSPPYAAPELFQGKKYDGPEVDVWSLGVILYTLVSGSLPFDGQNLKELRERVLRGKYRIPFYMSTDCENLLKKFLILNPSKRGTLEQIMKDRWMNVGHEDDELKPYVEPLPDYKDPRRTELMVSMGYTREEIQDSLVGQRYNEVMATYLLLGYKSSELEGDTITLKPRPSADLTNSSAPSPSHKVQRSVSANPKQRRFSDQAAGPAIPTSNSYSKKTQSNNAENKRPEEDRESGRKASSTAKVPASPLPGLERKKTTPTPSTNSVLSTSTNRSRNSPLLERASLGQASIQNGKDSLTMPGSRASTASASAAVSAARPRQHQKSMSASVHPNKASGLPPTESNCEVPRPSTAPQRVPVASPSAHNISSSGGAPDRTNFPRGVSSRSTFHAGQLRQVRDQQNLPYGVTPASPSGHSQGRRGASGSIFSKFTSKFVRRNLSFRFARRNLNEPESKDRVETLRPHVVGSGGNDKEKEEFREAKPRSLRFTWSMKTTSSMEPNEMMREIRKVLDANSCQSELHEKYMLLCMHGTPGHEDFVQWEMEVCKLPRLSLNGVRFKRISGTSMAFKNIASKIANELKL
T1 sequence (P05771 1-673 isoform P05771-2): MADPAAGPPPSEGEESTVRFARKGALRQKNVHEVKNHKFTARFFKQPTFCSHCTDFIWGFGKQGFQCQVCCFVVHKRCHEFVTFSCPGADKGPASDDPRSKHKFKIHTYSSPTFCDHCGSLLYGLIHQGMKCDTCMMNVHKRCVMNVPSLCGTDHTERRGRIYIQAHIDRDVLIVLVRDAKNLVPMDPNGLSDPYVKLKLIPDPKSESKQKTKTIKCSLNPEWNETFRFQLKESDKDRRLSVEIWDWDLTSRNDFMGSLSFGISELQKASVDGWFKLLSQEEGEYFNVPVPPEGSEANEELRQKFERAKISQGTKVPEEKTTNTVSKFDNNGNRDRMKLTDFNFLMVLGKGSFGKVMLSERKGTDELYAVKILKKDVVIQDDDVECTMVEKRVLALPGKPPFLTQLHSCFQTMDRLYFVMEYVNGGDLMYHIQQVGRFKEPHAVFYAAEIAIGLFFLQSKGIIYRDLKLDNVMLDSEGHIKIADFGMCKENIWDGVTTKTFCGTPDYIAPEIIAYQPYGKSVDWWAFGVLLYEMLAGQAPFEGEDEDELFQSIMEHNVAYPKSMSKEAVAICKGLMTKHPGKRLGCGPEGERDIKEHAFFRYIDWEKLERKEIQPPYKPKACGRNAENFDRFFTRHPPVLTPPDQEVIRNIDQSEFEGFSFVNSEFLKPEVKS

CC(C)(C)C(=O)N1N=CC[C@H]1c1ccccc1 [GSK′963]
remaining activity at 10 µM (PKCb2; [1]): 105%
remaining activity at 10 µM (PKCb2; [2]): 105%
remaining activity at 10 µM (PKCb2; [3]): 106%
remaining activity at 10 µM (LKB1; [1]): 105%
remaining activity at 10 µM (LKB1; [2]): 105%
remaining activity at 10 µM (LKB1; [3]): 106%
remaining activity at 10 µM (MARK2/PAR-1Ba; [1]): 105%
remaining activity at 10 µM (MARK2/PAR-1Ba; [2]): 106%
remaining activity at 10 µM (MARK2/PAR-1Ba; [3]): 104%
remaining activity at 10 µM (AXL; [1]): 92.9%
remaining activity at 10 µM (AXL; [2]): 91.2%
remaining activity at 10 µM (AXL; [3]): 94.6%
remaining activity at 10 µM (JNK2; [1]): 100%
remaining activity at 10 µM (JNK2; [2]): 96.4%
remaining activity at 10 µM (JNK2; [3]): 104%
remaining activity at 10 µM (EPHA7; [1]): 111%
remaining activity at 10 µM (EPHA7; [2]): 109%
remaining activity at 10 µM (EPHA7; [3]): 112%
